# Experimental data published in patent US20230271949A1, “GLP-1R MODULATING COMPOUNDS” (ASCLETIS BIOSCIENCE CO., LTD., priority 2022, published 2023).
# pEC50: −log10 of the molar value.
# Target: GLP-1R (Homo sapiens, UniProt P43220)
# Assay: GLP-1R agonist cAMP stimulation assay (HTRF cAMP)
# Format: cell-based
# Conditions: HEK293 cell line expressing GLP-1 target; HTRF cAMP agonist mode, 30 min at RT
# In short: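 Read-out was HTRF (665/615 ratio), interpolated onto a cAMP standard curve and normalised to DMSO (0%) and maximal GLP-1(7-37) reference (100%) wells. Assay: GLP-1R cells at 1.0×E5/mL incubated with compound dilution series (3-fold, 10 points) for 30 min at room temperature before 60 min detection.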
# Sequence of GLP-1R (P43220 24-463): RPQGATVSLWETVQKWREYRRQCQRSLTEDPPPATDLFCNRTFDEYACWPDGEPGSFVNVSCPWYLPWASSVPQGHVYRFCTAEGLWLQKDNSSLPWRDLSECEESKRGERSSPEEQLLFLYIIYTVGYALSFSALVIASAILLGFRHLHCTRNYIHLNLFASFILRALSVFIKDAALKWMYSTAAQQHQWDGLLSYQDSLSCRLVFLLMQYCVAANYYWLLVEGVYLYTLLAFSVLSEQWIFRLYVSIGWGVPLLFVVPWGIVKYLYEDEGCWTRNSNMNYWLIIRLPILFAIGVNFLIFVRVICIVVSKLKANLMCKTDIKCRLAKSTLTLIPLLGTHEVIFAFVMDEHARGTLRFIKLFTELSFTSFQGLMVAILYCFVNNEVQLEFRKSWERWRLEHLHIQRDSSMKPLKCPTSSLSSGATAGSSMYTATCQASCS
row,pEC50,Compound
1,7.97,O=C(Nc1ccc2[nH]nc(Cl)c2c1)c1ccc2nc(CN3CC=C(c4cccc(OCc5ccc(Cl)cc5F)n4)CC3)n(CC3CCO3)c2c1 (centres unmarked) [Compound 269]
2,8.50,Cc1n[nH]c2ccc(C(=O)Nc3ccc4c(c3)nc(CN3CC=C(c5cccc(OCc6ccc(Cl)cc6F)n5)CC3)n4C[C@@H]3CCO3)nc12 [Compound 239]
3,8.24,O=C(Nc1ccc2ncsc2c1)c1ccc2c(c1)nc(CN1CC=C(c3cccc(OCc4ccc(Cl)cc4F)n3)CC1)n2C[C@@H]1CCO1 [Compound 150]
4,8.23,O=C(Nc1ccc2c(c1)nc(CN1CC=C(c3cccc(OCc4ccc(Cl)cc4F)n3)CC1)n2CC1CCO1)c1ccn2ncc(Cl)c2c1 (centres unmarked) [Compound 206]
5,9.02,Cc1n[nH]c2c(C)cc(C(=O)Nc3ccc4nc(CN5CC=C(c6cccc(OCc7ccc(Cl)cc7F)n6)CC5)n(CC5CCO5)c4c3)cc12 (centres unmarked) [Compound 279]
6,8.26,Cc1cc(NC(=O)c2ccc3c(n2)nc(CN2CC=C(c4cccc(OCc5ccc(Cl)cc5F)n4)CC2)n3C[C@@H]2CCO2)cc2cn[nH]c12 [Compound 137]
7,8.79,Cc1n[nH]c2c(C(F)F)cc(NC(=O)c3ccc4c(c3)nc(CN3CC=C(c5cccc(OCc6ccc(Cl)cc6F)n5)CC3)n4C[C@@H]3CCO3)cc12 [Compound 172]
8,8.37,Cc1n[nH]c2c(C)cc(NC(=O)c3ccc4nc(CN5CC=C(c6cccc(OCc7ccc(Cl)cc7F)n6)CC5)n(CC5CCO5)c4c3)cc12 (centres unmarked) [Compound 264]
9,9.70,Cc1n[nH]c2ccc(NC(=O)c3ccc4c(c3)nc(CN3CC=C(c5cccc(OCc6ccc(C#N)cc6F)n5)CC3)n4C[C@@H]3CCO3)cc12 [Compound 187]
10,9.06,Cc1n[nH]c2ccc(NC(=O)c3ccc4c(c3)nc(CN3CC=C(c5cccc(OCc6ccc(Cl)cc6F)n5)CC3)n4C[C@@H]3CCO3)c(F)c12 [Compound 176]
11,8.01,O=C(Nc1ccc2nc(CN3CC=C(c4cccc(OCc5ccc(Cl)cc5F)n4)CC3)n(CC3CCO3)c2c1)c1ccc2[nH]nc(Cl)c2c1 (centres unmarked) [Compound 284]
12,8.02,Cc1n[nH]c2c(C3CC3)cc(NC(=O)c3ccc4c(c3)nc(CN3CC=C(c5cccc(OCc6ccc(Cl)cc6F)n5)CC3)n4C[C@@H]3CCO3)cc12 [Compound 171]
13,8.98,Cc1cc(C(=O)Nc2ccc3c(c2)nc(CN2CC=C(c4cccc(OCc5ccc(C#N)cc5F)n4)CC2)n3C[C@@H]2CCO2)cc2cn[nH]c12 [Compound 236]
14,8.28,Cc1c[nH]c2c(C)cc(C(=O)Nc3ccc4c(c3)nc(CN3CC=C(c5cccc(OCc6ccc(Cl)cc6F)n5)CC3)n4C[C@@H]3CCO3)cc12 [Compound 390]
15,8.06,Cc1n[nH]c2cnc(C(=O)Nc3ccc4c(c3)nc(CN3CC=C(c5cccc(OCc6ccc(Cl)cc6F)n5)CC3)n4C[C@@H]3CCO3)cc12 [Compound 237]
16,9.38,Cc1n[nH]c2ccc(C(=O)Nc3ccc4c(c3)nc(CN3CC=C(c5cccc(OCc6ccc(C#N)cc6F)n5)CC3)n4C[C@@H]3CCO3)cc12 [Compound 235]
17,9.60,O=C(Nc1ccc2c(c1)nc(CN1CC=C(c3cccc(OCc4ccc(Cl)cc4F)n3)CC1)n2C[C@@H]1CCO1)c1cc(F)c2c(c1)C1(CC1)C(=O)N2 [Compound 208]
18,7.63,O=C(Nc1nc2[nH]cnc2s1)c1ccc2c(c1)nc(CN1CC=C(c3cccc(OCc4ccc(Cl)cc4F)n3)CC1)n2C[C@@H]1CCO1 [Compound 403]
19,9.17,Cc1n[nH]c2c(C(F)(F)F)cc(NC(=O)c3ccc4c(c3)nc(CN3CC=C(c5cccc(OCc6ccc(Cl)cc6F)n5)CC3)n4C[C@@H]3CCO3)cc12 [Compound 156]

# The next lines start with the compound.
row,Compound,pEC50
1,Cc1n[nH]c2ccc(C(=O)Nc3ccc4c(c3)nc(Cc3ccc(-c5cccc6c5OC(C)(c5ccc(Cl)cc5F)O6)s3)n4C[C@@H]3CCO3)cc12 (some centres unmarked) [Compound 322],7.50
2,C=C(C)c1n[nH]c2ccc(C(=O)Nc3ccc4c(c3)nc(C3CC35CCN(c3cccc(OCc6ccc(Cl)cc6F)n3)CC5)n4CC3CCO3)cc12 (centres unmarked) [Compound 243],9.32
3,O=C(Nc1ccc2c(c1)nc(C1CC13CCC(c1cccc(OCc4ccc(Cl)cc4F)n1)CC3)n2CC1CCO1)c1ccc2[nH]nc(C3CC3)c2c1 (centres unmarked) [Compound 252],8.99
4,O=C(NCC(=O)N1C[C@H](O)C[C@@H]1C(=O)O)c1ccc2c(c1)nc(CN1CCC(c3cccc(OCc4ccc(Cl)cc4F)n3)CC1)n2C[C@@H]1CCO1 [Compound 46],7.37
5,COCCn1c(C2CC23CCN(c2cccc(OCc4ccc(C#N)cc4F)n2)CC3)nc2ccc(C(=O)Nc3ccc4[nH]nc(C)c4c3)cc21 (centres unmarked) [Compound 8],8.88
6,CCn1cncc1Cn1c(Cc2c(F)cc(-c3cccc4c3O[C@](C)(c3ccc(Cl)cn3)O4)cc2F)nc2cc(NC(=O)c3cc(F)c4[nH]nc(C)c4c3)ccc21 [Compound 412],8.51
7,Cc1n[nH]c2c(C)cc(C(=O)Nc3ccc4c(c3)nc(CN3CC=C(c5cccc6c5OC(C)(c5ccc(Cl)cc5F)O6)CC3)n4CC3CCO3)cc12 (centres unmarked) [Compound 305],9.72
8,Cc1cc(NC(=O)c2ccc3c(c2)nc(CN2CCC(c4cccc(OCc5ccc(Cl)cc5F)n4)CC2)n3C[C@@H]2CCO2)cc2c(C(F)F)n[nH]c12 [Compound 116],9.04
9,O=C(Nc1ccc2[nH]nc(C3CC3)c2c1)c1ccc2c(c1)nc(CN1CCC(c3cccc(OCc4ccc(Cl)cc4F)n3)CC1)n2C[C@@H]1CCO1 [Compound 112],8.21
10,Cc1nc2cccc(COc3cccc(C4CCN(Cc5nc6cc(C(=O)Nc7ccc8[nH]nc(C)c8c7)ccc6n5C[C@@H]5CCO5)CC4)n3)c2s1 [Compound 381],8.70
11,O=C(Nc1ccc2[nH]c(=O)[nH]c2n1)c1ccc2c(c1)nc(CN1CCC(c3cccc(OCc4ccc(Cl)cc4F)n3)CC1)n2C[C@@H]1CCO1 [Compound 93],7.53
12,Cc1n[nH]c2c(C(F)(F)F)cc(NC(=O)c3ccc4c(c3)nc(CN3CC=C(c5cccc6c5O[C@](C)(c5ccc(Cl)cc5F)O6)CC3)n4CC3CCO3)cc12 (some centres unmarked) [Compound 389],8.55
13,COCCn1c(CN2CCC(c3cccc(OCc4ccc(Cl)cc4F)n3)CC2)nc2cc(C(=O)NCc3ccc(O)c(OC)c3)ccc21 [Compound 28],7.12
14,Cc1n[nH]c2c(C(F)(F)F)cc(NC(=O)c3ccc4c(c3)nc(CN3CC=C(c5cccc6c5O[C@@](C)(c5ccc(Cl)cc5F)O6)CC3)n4CC3CCO3)cc12 (some centres unmarked) [Compound 388],9.09
15,COC(=O)[C@@H]1C[C@H](O)CN1C(=O)CNC(=O)c1ccc2c(c1)nc(CN1CCC(c3cccc(OCc4ccc(Cl)cc4F)n3)CC1)n2C[C@@H]1CCO1 [Compound 63],9.31
16,Cc1n[nH]c2c(F)cc(NC(=O)c3ccc4c(c3)nc(CN3CC=C(c5cccc(OCc6ccc(C#N)cc6F)n5)CC3)n4C[C@@H]3CCO3)cc12 [Compound 177],9.64
17,N#Cc1n[nH]c2ccc(NC(=O)c3ccc4c(c3)nc(CN3CCC(c5cccc(OCc6ccc(Cl)cc6F)n5)CC3)n4C[C@@H]3CCO3)cc12 [Compound 82],6.94

row,Compound,pEC50
1,COCCn1c(Cc2ccc(-c3cccc(OCc4ccc(C#N)cc4F)n3)cc2)nc2cc(C(=O)NCCc3ccc(N)cc3)ccc21 [Compound 9],5.53
2,COCCn1c(CN2CCC(c3cccc(OCc4ccc(Cl)cc4F)n3)CC2)nc2cc(C(=O)NCCc3ccccc3O)ccc21 [Compound 18],6.39
3,O=C(Nc1cc(C(F)(F)F)c2[nH]nc(C3CC3)c2c1)c1ccc2c(c1)nc(CN1CCC(c3cccc(OCc4ccc(Cl)cc4F)n3)CC1)n2C[C@@H]1CCO1 [Compound 113],8.36
4,Cc1n[nH]c2c(C(F)F)cc(NC(=O)c3ccc4c(c3)nc(CN3CC=C(c5cccc(OCc6ccc(Cl)c7cc(Cl)oc67)n5)CC3)n4C[C@@H]3CCO3)cc12 [Compound 352],8.99
5,Nc1ncc2c(ncn2C(=O)c2ccc3c(c2)nc(CN2CCC(c4cccc(OCc5ccc(Cl)cc5F)n4)CC2)n3C[C@@H]2CCO2)n1 [Compound 78],7.64
6,Cc1cc(NC(=O)c2ccc3c(c2)nc(CN2CCC(c4cccc(OCc5ccc(Cl)cc5F)n4)CC2)n3C[C@@H]2CCO2)c(F)c2c(C)n[nH]c12 [Compound 121],8.37
7,O=C(Nc1cc(F)c2[nH]ncc2c1)c1ccc2c(c1)nc(CN1CCC(c3cccc(OCc4ccc(Cl)cc4F)n3)CC1)n2C[C@@H]1CCO1 [Compound 102],8.88
8,Cc1c(C#N)sc(COc2cccc(C3=CCN(Cc4nc5cc(NC(=O)c6ccc7[nH]nc(C)c7c6)ccc5n4C[C@@H]4CCO4)CC3)n2)c1F [Compound 361],9.05
9,Cc1cc(NC(=O)c2ccc3c(c2)nc(CN2CCC(c4cccc5c4OC(C)(c4ccc(Cl)cc4F)O5)CC2)n3C[C@@H]2CCO2)cc2c1NC(=O)C21CC1 (some centres unmarked) [Compound 337],9.35
10,N#Cc1ccc(COc2cccc(C3=CCN(Cc4nc5cc(NC(=O)c6ccc7c(c6)C6(CC6)C(=O)N7)ccc5n4C[C@@H]4CCO4)CC3)n2)c(F)c1 [Compound 230],10.05
11,CCc1n[nH]c2ccc(C(=O)Nc3ccc4c(c3)nc(CN3CCC(c5cccc6c5OC(C)(c5ccc(C#N)cc5F)O6)CC3)n4CC3CCO3)cc12 (centres unmarked) [Compound 346],9.12
12,Cc1n[nH]c2c(Cl)cc(C(=O)Nc3ccc4c(c3)nc(CN3CC=C(c5cccc6c5OC(C)(c5ccc(Cl)cc5F)O6)CC3)n4CC3CCO3)cc12 (centres unmarked) [Compound 308],8.51
13,Cc1n[nH]c2c(F)cc(NC(=O)c3ccc4nc(CN5CC=C(c6cccc(OCc7ccc(C#N)cc7F)n6)CC5)n(CC5CCO5)c4c3)cc12 (centres unmarked) [Compound 274],8.78
14,COCCn1c(Cc2ccc(-c3cccc(OCc4ccc(C#N)cc4F)n3)cc2)nc2cc(C(=O)NCCc3ccc(C(=O)O)cc3)ccc21 [Compound 12],6.91
15,Cc1nn(C)c2ccc(NC(=O)c3ccc4c(c3)nc(CN3CCC(c5cccc(OCc6ccc(Cl)cc6F)n5)CC3)n4C[C@@H]3CCO3)cc12 [Compound 109],7.33
16,Cc1c(C#N)sc(COc2cccc(C3CCN(Cc4nc5cc(NC(=O)c6ccc7[nH]nc(C)c7c6)ccc5n4C[C@@H]4CCO4)CC3)n2)c1F [Compound 373],9.41
17,Cc1cc(C(=O)Nc2ccc3c(c2)nc(CN2CC=C(c4cccc5c4OC(C)(c4ccc(Cl)cc4F)O5)CC2)n3C[C@@H]2CCO2)cc2[nH]c(=O)[nH]c12 (some centres unmarked) [Compound 309],9.06
